One series relates to A549. The series can be described thus: Antiproliferative activity against human A549 cells assessed as reduction in cell viability incubated at 20 uM for 72 hrs by MTT assay relative to control. In kind it is functional. On the technique in general: Tetrazolium dyes change colour on reduction, which living cells bring about.
Series [1] addresses T1, MAP kinase-interacting serine/threonine-protein kinase 2 (Homo sapiens, UniProt Q9HBH9). The series can be described thus: Inhibition of MNK2 (unknown origin) at 100 nM incubated for 60 mins by HTRF assay.
Target sequence in this assay (Q9HBH9 whole entry, looked up): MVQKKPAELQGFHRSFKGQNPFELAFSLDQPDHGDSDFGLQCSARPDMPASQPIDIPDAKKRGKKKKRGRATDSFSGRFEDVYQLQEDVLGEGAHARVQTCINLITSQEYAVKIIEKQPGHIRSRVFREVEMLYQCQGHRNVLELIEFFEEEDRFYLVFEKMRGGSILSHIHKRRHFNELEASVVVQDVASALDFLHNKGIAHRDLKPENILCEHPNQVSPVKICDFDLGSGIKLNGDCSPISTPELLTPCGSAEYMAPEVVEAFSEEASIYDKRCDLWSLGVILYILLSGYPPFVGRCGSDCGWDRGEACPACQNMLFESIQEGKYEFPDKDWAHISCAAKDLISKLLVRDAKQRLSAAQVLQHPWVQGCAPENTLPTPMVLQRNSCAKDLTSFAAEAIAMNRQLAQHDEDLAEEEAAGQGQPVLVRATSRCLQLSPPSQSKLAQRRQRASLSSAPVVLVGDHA
Series [2] in a line: Antiproliferative activity against […] cells assessed as reduction in cell viability at 20 uM incubated for 72 hrs by MTT assay relative to control. In kind it is functional, Mus musculus.
Another series deals with HCT-116. Put plainly: Antiproliferative activity against human HCT-116 cells assessed as reduction in cell viability at 20 uM incubated for 72 hrs by MTT assay relative to control. The series is classed as functional.
Another series has as its system MDA-MB-435. Put plainly: Antiproliferative activity against human MDA-MB-435 cells assessed as reduction in cell viability at 20 uM incubated for 72 hrs by MTT assay relative to control. The series is classed as functional.
In another series the test system is MV4-11. The series can be described thus: Antiproliferative activity against human MV4-11 cells assessed as reduction in cell viability incubated for 72 hrs by MTT assay. The series is classed as functional, cell-based. The note with it: MV4-11, 72 h.
Another series deals with TMD8. Put plainly: Antiproliferative activity against human TMD8 cells assessed as reduction in cell viability incubated for 72 hrs by MTT assay. The note with it: TMD8, 72 h. In kind it is functional, cell-based.
Series [3] has as its target T1, MAP kinase-interacting serine/threonine-protein kinase 2. Put plainly: Inhibition of recombinant human N-terminal GST-tagged MNK2 (1 to 465 residues) expressed in baculovirus expression system using TATKSGSTTKNR as substrate preincubated for 10 mins followed by ATP addition and measured after 40 mins by luminescence based assay.
Target sequence in this assay (Q9HBH9 whole entry): as the sequence (Q9HBH9 whole entry, looked up) above
The target in series [4] is T2, MAP kinase-interacting serine/threonine-protein kinase 1 (Homo sapiens, UniProt Q9BUB5). The series can be described thus: Inhibition of recombinant human N-terminal DYKDDDDK-tagged MNK1(1 to 424 residues) expressed in baculovirus expression system using TATKSGSTTKNR as substrate preincubated for 10 mins followed by ATP addition and measured after 40 mins by luminescence based assay.
Target sequence in this assay (Q9BUB5 whole entry, the tested form may be a part): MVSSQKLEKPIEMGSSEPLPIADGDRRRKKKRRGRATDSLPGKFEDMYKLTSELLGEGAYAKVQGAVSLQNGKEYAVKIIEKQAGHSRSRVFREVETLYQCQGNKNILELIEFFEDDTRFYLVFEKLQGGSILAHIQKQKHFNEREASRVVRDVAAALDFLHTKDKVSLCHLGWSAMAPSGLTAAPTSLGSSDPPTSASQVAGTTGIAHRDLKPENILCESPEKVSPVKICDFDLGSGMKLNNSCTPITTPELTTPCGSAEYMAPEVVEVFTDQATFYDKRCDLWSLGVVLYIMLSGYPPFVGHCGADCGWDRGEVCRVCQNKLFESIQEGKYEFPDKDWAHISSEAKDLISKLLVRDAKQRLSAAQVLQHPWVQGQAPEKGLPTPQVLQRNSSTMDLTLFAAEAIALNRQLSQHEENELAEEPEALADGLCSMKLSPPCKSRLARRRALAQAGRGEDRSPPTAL

Series [5] concerns the target T2, MAP kinase-interacting serine/threonine-protein kinase 1. Put plainly: Potency index, ratio of IC50 of eFT508 to IC50 of compound for inhibition of recombinant human N-terminal DYKDDDDK-tagged MNK1(1 to 424 residues) expressed in baculovirus expression system using TATKSGSTTKNR as substrate preincubated for 10 mins followed by ATP addition and measured after 40 mins by luminescence based assay. To be noted: time 50.0 min.
Target sequence in this assay (Q9BUB5 whole entry, looked up, the tested form may be a part): as the sequence (Q9BUB5 whole entry, the tested form may be a part) above

Another series concerns K562. The series can be described thus: Antiproliferative activity against human K562 cells assessed as reduction in cell viability incubated for 72 hrs by MTT assay. The series is classed as functional, cell-based. To be noted: K562, 72 h.
Series [6] concerns the target T2, MAP kinase-interacting serine/threonine-protein kinase 1. Put plainly: Inhibition of MNK1 (unknown origin) at 100 nM incubated for 60 mins by HTRF assay.
Target sequence in this assay (Q9BUB5 whole entry, looked up, the tested form may be a part): as the sequence (Q9BUB5 whole entry, the tested form may be a part) above
The target in series [7] is T1, MAP kinase-interacting serine/threonine-protein kinase 2. The series can be described thus: Potency index, ratio of IC50 of eFT508 to IC50 of compound for inhibition of recombinant human N-terminal GST-tagged MNK2 (1 to 465 residues) expressed in baculovirus expression system using TATKSGSTTKNR as substrate preincubated for 10 mins followed by ATP addition and measured after 40 mins by luminescence based assay. To be noted: time 50.0 min.
Target sequence in this assay (Q9HBH9 whole entry, looked up): as the sequence (Q9HBH9 whole entry, looked up) above

A further series has as its system CT26. Put plainly: Antitumor activity against […] cells xenografted in BALB/c mouse assessed as tumor growth inhibition dosed ip for 14 days. The series is classed as functional, organism-based. To be noted: time 14.0 day. On the technique in general: In xenograft studies the graft and the host belong to different species.
Series [8] has as its target Macrophage colony-stimulating factor 1 receptor (Homo sapiens) (UniProt P07333). The series can be described thus: Inhibition of CSF1R (unknown origin) at 500 nM relative to control.
For series [9], the target named is Tyrosine-protein kinase JAK1 (Homo sapiens) (UniProt P23458). The series can be described thus: Inhibition of JAK1 (unknown origin) at 500 nM relative to control.
Tyrosine-protein kinase JAK1 (Homo sapiens), sequence (P23458 whole entry): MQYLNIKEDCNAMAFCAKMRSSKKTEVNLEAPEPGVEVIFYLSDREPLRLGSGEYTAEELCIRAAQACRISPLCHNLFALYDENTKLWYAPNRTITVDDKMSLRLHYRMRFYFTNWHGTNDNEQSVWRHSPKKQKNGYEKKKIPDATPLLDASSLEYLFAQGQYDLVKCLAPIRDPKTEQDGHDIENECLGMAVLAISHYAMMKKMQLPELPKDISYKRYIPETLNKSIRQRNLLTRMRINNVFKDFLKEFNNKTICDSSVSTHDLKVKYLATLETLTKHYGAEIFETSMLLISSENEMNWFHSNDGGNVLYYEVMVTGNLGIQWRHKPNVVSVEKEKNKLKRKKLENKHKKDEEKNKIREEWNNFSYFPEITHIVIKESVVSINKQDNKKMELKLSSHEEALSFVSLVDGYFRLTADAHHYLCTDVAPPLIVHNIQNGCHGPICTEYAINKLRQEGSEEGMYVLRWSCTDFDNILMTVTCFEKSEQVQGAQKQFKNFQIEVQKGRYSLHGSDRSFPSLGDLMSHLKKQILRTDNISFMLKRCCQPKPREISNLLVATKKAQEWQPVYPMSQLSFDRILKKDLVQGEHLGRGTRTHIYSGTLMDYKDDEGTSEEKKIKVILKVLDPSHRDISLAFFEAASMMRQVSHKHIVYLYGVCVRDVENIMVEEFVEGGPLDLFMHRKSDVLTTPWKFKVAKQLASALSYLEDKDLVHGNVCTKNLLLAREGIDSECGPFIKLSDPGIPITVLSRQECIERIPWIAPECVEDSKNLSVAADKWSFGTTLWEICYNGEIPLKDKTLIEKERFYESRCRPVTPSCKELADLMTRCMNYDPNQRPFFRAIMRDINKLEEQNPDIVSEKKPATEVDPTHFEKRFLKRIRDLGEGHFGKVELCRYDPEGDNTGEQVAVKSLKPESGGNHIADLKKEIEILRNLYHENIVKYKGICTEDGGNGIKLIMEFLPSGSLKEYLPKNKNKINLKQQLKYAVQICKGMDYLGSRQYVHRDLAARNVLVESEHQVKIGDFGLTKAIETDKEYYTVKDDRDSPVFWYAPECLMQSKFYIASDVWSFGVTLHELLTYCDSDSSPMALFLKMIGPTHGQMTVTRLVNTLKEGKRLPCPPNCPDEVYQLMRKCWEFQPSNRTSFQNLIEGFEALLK
Series [10] deals with Cyclin-dependent kinase 2 (Homo sapiens) (UniProt P24941). Put plainly: Inhibition of CDK2 (unknown origin) at 500 nM relative to control.
The target of series [11] is T3, MAP kinase-interacting serine/threonine-protein kinase 1/2 (Homo sapiens) (UniProt Q9HBH9+Q9BUB5). Put plainly: Inhibition of MNK1/MNK2 in […] cells assessed as reduction in eIF4E phosphorylation at 1 uM incubated for 24 hrs by Western blot analysis relative to control. The series is classed as cell-based. A general note: A western blot detects proteins with antibodies after separation by electrophoresis.

Series [12] can be described thus: Antitumor activity against […] cells xenografted in BALB/c mouse assessed as tumor growth inhibition at 40 mg/kg, ip administered for 14 days relative to control. The series is classed as functional. To be noted: 336 h, time 14 day, read-out: TGI.
For series [13], the target named is T3, MAP kinase-interacting serine/threonine-protein kinase 1/2 (Homo sapiens). Put plainly: Inhibition of MNK1/MNK2 in […] cells assessed as reduction in eIF4E level at 0.25 to 1 incubated for 24 hrs by Western blot analysis. In kind it is cell-based. The note with it: dose microM 0.25-1, time 24.0 hrs.
Series [14] has the same target. Put plainly: Inhibition of MNK1/MNK2 in […] cells assessed as reduction in eIF4E phosphorylation incubated for 24 hrs by Western blot analysis. In kind it is cell-based.
A short description of series [15]: Toxicity in BALB/c mouse xenografted with […] cells assessed as weight loss at 20 to 40 mg/kg, ip administered for 14 days. The series is classed as organism-based. The note with it: in vivo, 336 h, dose 20-40 mg/kg, time 14 day.
Series [16] can be described thus: Antitumor activity against […] cells xenografted in BALB/c mouse assessed as tumor growth inhibition at 20 mg/kg, ip administered for 14 days relative to control. In kind it is functional. The note with it: 336 h, time 14 day, read-out: TGI.
The target in series [17] is T4, Interleukin-1 receptor-associated kinase 4 (Homo sapiens) (UniProt Q9NWZ3).
T4 sequence (whole entry): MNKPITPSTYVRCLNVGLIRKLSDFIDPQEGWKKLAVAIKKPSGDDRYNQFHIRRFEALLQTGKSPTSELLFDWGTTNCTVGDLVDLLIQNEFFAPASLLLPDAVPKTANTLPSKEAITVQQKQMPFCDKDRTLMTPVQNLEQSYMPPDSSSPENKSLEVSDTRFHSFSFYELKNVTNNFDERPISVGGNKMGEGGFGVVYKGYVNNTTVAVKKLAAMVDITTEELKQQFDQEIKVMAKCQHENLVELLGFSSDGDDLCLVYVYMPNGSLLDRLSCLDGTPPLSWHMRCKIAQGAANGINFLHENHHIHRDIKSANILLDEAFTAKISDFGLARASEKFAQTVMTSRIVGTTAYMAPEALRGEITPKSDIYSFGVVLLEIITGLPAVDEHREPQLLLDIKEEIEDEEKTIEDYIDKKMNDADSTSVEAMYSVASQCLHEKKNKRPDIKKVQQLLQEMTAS
Put plainly: Inhibition of IRAK4 (unknown origin) at 500 nM relative to control.

Series [18] concerns the target AMP-activated protein kinase, AMPK (Homo sapiens) (UniProt P54646+O43741+P54619+Q9UGJ0+Q9Y478+Q13131+Q9UGI9). The series can be described thus: Inhibition of AMPK (unknown origin) at 500 nM relative to control. In kind it is protein-complex assay.
For series [19], the target named is Tyrosine-protein kinase BTK (Homo sapiens) (UniProt Q06187). Put plainly: Inhibition of BTK (unknown origin) at 500 nM relative to control.
Tyrosine-protein kinase BTK (Homo sapiens), sequence (Q06187 whole entry): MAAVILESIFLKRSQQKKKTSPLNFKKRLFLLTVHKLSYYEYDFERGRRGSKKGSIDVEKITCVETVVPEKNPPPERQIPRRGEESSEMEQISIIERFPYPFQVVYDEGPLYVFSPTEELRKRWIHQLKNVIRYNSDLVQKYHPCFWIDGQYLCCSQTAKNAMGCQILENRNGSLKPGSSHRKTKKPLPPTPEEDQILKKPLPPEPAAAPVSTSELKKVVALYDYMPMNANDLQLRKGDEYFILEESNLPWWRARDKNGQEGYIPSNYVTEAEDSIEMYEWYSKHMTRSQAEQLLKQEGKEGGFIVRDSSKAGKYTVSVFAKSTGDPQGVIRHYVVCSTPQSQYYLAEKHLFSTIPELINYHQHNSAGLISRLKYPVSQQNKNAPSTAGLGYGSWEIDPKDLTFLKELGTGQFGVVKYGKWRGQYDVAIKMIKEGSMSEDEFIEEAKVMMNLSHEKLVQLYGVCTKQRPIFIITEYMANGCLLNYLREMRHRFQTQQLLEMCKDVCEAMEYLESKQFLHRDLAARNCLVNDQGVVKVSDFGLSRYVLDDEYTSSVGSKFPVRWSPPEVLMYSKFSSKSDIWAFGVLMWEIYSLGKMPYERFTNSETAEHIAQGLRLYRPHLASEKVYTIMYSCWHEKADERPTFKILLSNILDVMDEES
For series [20], the target named is T2, MAP kinase-interacting serine/threonine-protein kinase 1. Put plainly: Inhibition of MNK1 (unknown origin) at 500 nM relative to control.
Target sequence in this assay (Q9BUB5 whole entry, looked up, the tested form may be a part): as the sequence (Q9BUB5 whole entry, the tested form may be a part) above
The target in series [21] is Cyclin-dependent kinase 1 (Homo sapiens) (UniProt P06493). The series can be described thus: Inhibition of CDK1 (unknown origin) at 500 nM relative to control.
Cyclin-dependent kinase 1 (Homo sapiens), sequence (P06493 whole entry, looked up): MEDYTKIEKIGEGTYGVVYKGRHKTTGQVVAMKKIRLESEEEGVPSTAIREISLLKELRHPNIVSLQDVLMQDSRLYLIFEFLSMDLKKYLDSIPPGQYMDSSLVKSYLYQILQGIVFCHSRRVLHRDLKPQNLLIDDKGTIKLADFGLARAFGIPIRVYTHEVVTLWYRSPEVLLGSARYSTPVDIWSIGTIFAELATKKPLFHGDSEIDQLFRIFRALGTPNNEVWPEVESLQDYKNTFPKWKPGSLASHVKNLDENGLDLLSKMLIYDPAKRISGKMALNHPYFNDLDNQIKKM
Series [22] has as its target T1, MAP kinase-interacting serine/threonine-protein kinase 2. Put plainly: Inhibition of MNK2 (unknown origin) at 500 nM relative to control.
Target sequence in this assay (Q9HBH9 whole entry, looked up): as the sequence (Q9HBH9 whole entry, looked up) above
The target in series [23] is Receptor-type tyrosine-protein kinase FLT3 (Homo sapiens) (UniProt P36888). Put plainly: Inhibition of FLT3 (unknown origin) at 500 nM relative to control.
Receptor-type tyrosine-protein kinase FLT3 (Homo sapiens), sequence (P36888 whole entry): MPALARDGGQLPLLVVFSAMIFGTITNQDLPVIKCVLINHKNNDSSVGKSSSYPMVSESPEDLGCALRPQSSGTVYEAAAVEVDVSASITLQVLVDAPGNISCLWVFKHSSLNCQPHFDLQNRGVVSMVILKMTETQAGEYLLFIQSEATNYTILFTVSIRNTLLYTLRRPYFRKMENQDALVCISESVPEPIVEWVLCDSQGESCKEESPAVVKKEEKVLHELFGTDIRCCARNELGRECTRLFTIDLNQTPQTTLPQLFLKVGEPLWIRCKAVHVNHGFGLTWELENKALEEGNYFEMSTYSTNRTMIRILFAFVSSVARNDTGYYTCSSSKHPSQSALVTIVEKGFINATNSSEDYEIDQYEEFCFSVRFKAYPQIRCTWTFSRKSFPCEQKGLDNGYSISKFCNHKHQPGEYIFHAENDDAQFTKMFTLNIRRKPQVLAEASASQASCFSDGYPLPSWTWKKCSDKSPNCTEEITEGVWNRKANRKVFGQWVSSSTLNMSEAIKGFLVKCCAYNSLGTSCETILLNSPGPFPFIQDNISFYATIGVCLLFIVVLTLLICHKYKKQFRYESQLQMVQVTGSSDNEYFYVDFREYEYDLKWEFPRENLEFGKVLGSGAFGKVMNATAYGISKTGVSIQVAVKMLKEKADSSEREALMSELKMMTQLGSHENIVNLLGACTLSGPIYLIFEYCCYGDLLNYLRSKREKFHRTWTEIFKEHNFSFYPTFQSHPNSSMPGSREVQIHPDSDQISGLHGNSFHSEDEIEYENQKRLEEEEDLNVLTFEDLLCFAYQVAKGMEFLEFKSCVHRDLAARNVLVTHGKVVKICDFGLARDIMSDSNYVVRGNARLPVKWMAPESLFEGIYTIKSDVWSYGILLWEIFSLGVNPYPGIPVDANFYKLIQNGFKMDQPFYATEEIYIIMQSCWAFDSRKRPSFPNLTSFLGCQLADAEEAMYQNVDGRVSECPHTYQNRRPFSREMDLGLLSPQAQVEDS

In general, inhibition refers to the drop in the measured response relative to a control, in per cent. Usually IC50 stands for the midpoint of a concentration-inhibition curve.

Each structure is given as a SMILES string. The source made the active and inactive calls. The rule behind the calls is not given here.

As for `Cc1cc(Nc2cc(N3CCN(CCN(C)C)CC3)ncn2)c(=O)n2c1C(=O)NC21CCCCC1`, the inhibition at 20 µM was 48.4% with A549, 40.5% in [2], 30.5% with HCT-116 and 35.2% with MDA-MB-435. Also, the results for the inhibition in series [1] and in series [6] were 89% and 77.2%, respectively. In addition, the IC50 in the series with MV4-11 is 9640 nM; in the series on TMD8, 1920 nM; in [3], 7.5 nM; in series [4], 8.7 nM; with K562 it was 13000 nM. Also, the Ratio IC50 in series [5] and in series [7] was 2 throughout.

Take `Cc1cc(Nc2cc(N3CCN(CCCN(C)C)CC3)ncn2)c(=O)n2c1C(=O)NC21CCCCC1`: the inhibition at 20 µM came out at 41.3% with A549, 58.3% in [2], 42.9% in the series with HCT-116 and 49% with MDA-MB-435. Further, the inhibition in series [1] was 91.2%; in series [8] it was 6%; in series [9], 6%; in series [10], 7%; in [11], 100%; in [6] it was 76.5%. In addition, the inhibition result is “Dose-dependent effect” in series [14]; 21% in series [17]; 11% in series [18]; 3% in series [19]; 96% in series [20]; 4% in [21]. The figures for the inhibition in series [22] and in [23] were 103% and 9%, respectively. Besides, the TGI entry with CT26 was “Dose-dependent effect”. For the same compound, the IC50 with MV4-11 came to 10000 nM; in the series on TMD8, 910 nM; in series [3] it was 6.1 nM; in series [4], 7 nM; with K562 it was 11700 nM. Further, the Ratio IC50 in series [5] and in [7] was 2 throughout. In addition, the inhibition in vivo at 40 mg/kg in [12] came to 60.4%. The inhibition entry in series [13] is “inactive”. Also, the Activity entry in series [15] is “Non-Toxic”. Also, the inhibition in vivo at 20 mg/kg in [16] turned out to be 41.4%.

For `Cc1cc(Nc2ccnc(N)n2)c(=O)n2c1C(=O)NC21CCCCC1`, the inhibition at 20 µM in the series with A549 turned out to be 22.6%; in [2], 35%; in the series with HCT-116, 30.7%; in the series with MDA-MB-435 it was 25.8%. Further, the inhibition was 66.3% in [1] and 52.7% in [6]. Also, the IC50 is over 20000 nM in the series on MV4-11; over 20000 nM in the series on TMD8; 228 nM in series [3]; 390 nM in series [4]; over 20000 nM in the series with K562.

As to `Cc1cc(Nc2cc(N)ncn2)c(=O)n2c1C(=O)NC21CCCCC1` [TOMIVOSERTIB], the inhibition at 20 µM in the series on A549 amounted to 40.6%; in [2], 43.1%; in the series with HCT-116, 52.7%; with MDA-MB-435 it was 49.2%. The inhibition in [1] was 98.8%; in [6] it was 87.8%. In addition, the IC50 in the series on MV4-11 stood at 14500 nM; in the series on TMD8, 2530 nM; in the series on K562 it was 13500 nM. For the same compound, the inhibition in vivo at 20 mg/kg in [16] was determined as 59%.

Turning to `Cc1cc(Nc2ccnnc2)c(=O)n2c1C(=O)NC21CCCCC1`, the inhibition at 20 µM in the series on A549 was 14%; in series [2] it was 24.3%; with HCT-116 it was 22.7%; with MDA-MB-435, 33%. Moreover, the inhibition is 70.3% in series [1] and 59.8% in series [6]. Besides, the half-maximal inhibitory concentration (IC50) in the series on MV4-11 was 13300 nM; in the series on TMD8, 8780 nM; in [3], 162 nM; in series [4] it was 160 nM; in the series with K562 it was over 20000 nM.

With `Cc1cc(Nc2cc(N3CCC(N)CC3)ncn2)c(=O)n2c1C(=O)NC21CCCCC1`, the inhibition at 20 µM in the series on A549 was found to be 50.1%; in series [2], 36.5%; in the series with HCT-116, 46.8%; in the series on MDA-MB-435 it was 42%. For the same compound, the inhibition in series [1] stood at 64.3%; in series [6] it was 62.7%. Moreover, the IC50 with MV4-11 is over 20000 nM; in the series with TMD8, 9960 nM; in series [3], 82 nM; in series [4] it was 125 nM; with K562, 17700 nM.
